According to patent US20060247323A1, “Stabilisation of light sensitive substances” (priority 2000, published 2006):

Tested on: cockroaches
Test: Biological knockdown of cockroaches on glass plates sprayed with diluted d-phenothrin emulsions I, J and neat d-phenothrin
Format: in vivo
Conditions: 30 mg active pesticide/m^2
Protocol: Samples of the emulsions I and J and neat d-phenothrin are diluted in water and sprayed onto a glass plates to give a concentration of 30 mg active pesticide/m^2. The samples are tested for biological knockdown of cockroaches for 15 minute and 24 hour exposure on the plates and the effectiveness of the pesticide on the treated plates monitored periodically under light and dark conditions. The results of the tests conducted in daylight are shown in Table 3. and those conducted in the dark are shown Table 4.

[1] = daylight, 7 days after application to plates
[2] = daylight, 14 days after application to plates
[3] = daylight, 21 days after application to plates
[4] = daylight, 49 days after application to plates
[5] = daylight, 63 days after application to plates
[6] = daylight, 91 days after application to plates

CC(C)=CC1C(C(=O)OCc2cccc(Oc3ccccc3)c2)C1(C)C (stereo not drawn) [phenothrin, d-phenothrin]
% Kill after 15 minute exposure (dark, 1 day after application to plates): 100% | % Kill after 15 minute exposure (dark, 7 days after application to plates): 100% | % Kill after 15 minute exposure (dark, 14 days after application to plates): 100% | % Kill after 15 minute exposure (dark, 21 days after application to plates): 100% | % Kill after 15 minute exposure (dark, 49 days after application to plates): 100% | % Kill after 15 minute exposure (dark, 63 days after application to plates): 100% | % Kill after 15 minute exposure (dark, 91 days after application to plates): 100% | % Kill after 15 minute exposure (daylight, 1 day after application to plates): 100% | % Kill after 15 minute exposure [1]: 0% | % Kill after 24 hour exposure (in brackets) [1]: 10% | % Kill after 15 minute exposure [2]: 0 (0) % | % Kill after 24 hour exposure (in brackets) [2]: 0 (0) % | % Kill after 15 minute exposure [3]: 10% | % Kill after 24 hour exposure (in brackets) [3]: 0% | % Kill after 15 minute exposure [4]: 10 (10) % | % Kill after 24 hour exposure (in brackets) [4]: 10 (10) % | % Kill after 15 minute exposure [5]: 10% | % Kill after 24 hour exposure (in brackets) [5]: 40% | % Kill after 15 minute exposure [6]: 0 (0) % | % Kill after 24 hour exposure (in brackets) [6]: 0 (0) %
